Patent publication US5352703A, “Antitussive and mucus regulating agent, a process for the preparation thereof and pharmaceutical compositions containing it” (priority 1990, dated 1994)
“Also recorded” adds a separate entry of the source.

Experiments:
Type in all cases: in vivo
[1] = test system: Citric acid induced cough; test: Citric acid induced cough in Guinea pig; conditions: for Cough strokes after treatment: mean ± S.E.; for Cough strokes after treatment / % inhibition vs. basal (cough strokes): n = 10; for ED50: Cavia porcellus, ip., citric acid cough, read-out: DE50 (effective dose 50, ED50)
Text: 1. Citric acid induced cough in Guinea pig. The procedure described by R.A. Turner in "Screening methods in pharmacology-Antitussive agents" -Academic Press. New York-chapt. 23-page 219, 1965, with the changes reported by S. Malandrino et al. (Arzneim. Forsch. Drug. REs, 38, 1141, 1988), was used, comparing YS 912 with Ambroxol.

NH3 induced cough = NH3 induced cough in Guinea pig; conditions: for antitussive activity in words: NH3 cough, p.o., Ambroxol at twice the YS 912 dose
Description: NH3 induced cough in Guinea pig.
23-page 219, 1965 with the changes reported by S. Malandrino et al. (Arzneim. Forsch. Drug. Res, 38, 1141, 1988) was used, comparing YS 912, Ambroxol and two standard control drugs: Fominoben and Codeine phosphate.

[2] = test system: Cough induced by mechanical stimulation; test: Cough induced by mechanical stimulation in dog; conditions: for antitussive activity in words: mechanical stimulation, p.o., Ambroxol at twice the YS 912 dose
Description: Cough induced by mechanical stimulation in dog.
24 Page 523, was used, comparing YS 912 with Ambroxol, Fominoben and Codeine phosphate.

bronchial fluid = test: Bronchosecretolytic activity (fluorescein amount in bronchial fluid); conditions: for Fluorescein amount in bronchial fluid: means of 12 animals, controls 0.26 ± 0.03; for ED50: po, bronchosecretolytic activity, read-out: DE50 (calculated effective dose 50)
Text: The procedure described by H. […] Graziani and P. Cazzulani-(I1 Farmaco Ed. Pr. 36, 167; 1981) was used, comparing YS 912 with Ambroxol at the same weight doses.

[3] = Acute pharmacokinetic study in the rat, single administration at equimolecular doses
Description: A study was carried out on the rat, by comparing the kinetic profiles of YS 912 and Ambroxol, after single administration at equimolecular doses.

[4] = "In steady" pharmacokinetic study in the rat, equimolecular doses during 6 days; conditions: extrapolated to human from rat
[5] = single administration at equimolecular doses

| Structure (SMILES) | Cough strokes after treatment ([1]; 12.5 mg/kg ip.) | % inhibition vs. basal (cough strokes) ([1]; 12.5 mg/kg ip.) | Cough strokes after treatment ([1]; 25 mg/kg ip.) | % inhibition vs. basal (cough strokes) ([1]; 25 mg/kg ip.) | Cough strokes after treatment ([1]; 50 mg/kg ip.) | % inhibition vs. basal (cough strokes) ([1]; 50 mg/kg ip.) | ED50 [1] | antitussive activity in words (NH3 induced cough) | antitussive activity in words [2] | % v.s. controls (fluorescein amount) (bronchial fluid; 12.5 mg/kg p.o.) | Fluorescein amount in bronchial fluid (bronchial fluid; 12.5 mg/kg p.o.) | % v.s. controls (fluorescein amount) (bronchial fluid; 25.0 mg/kg p.o.) | Fluorescein amount in bronchial fluid (bronchial fluid; 25.0 mg/kg p.o.) | % v.s. controls (fluorescein amount) (bronchial fluid; 50.0 mg/kg p.o.) | Fluorescein amount in bronchial fluid (bronchial fluid; 50.0 mg/kg p.o.) | ED50 (bronchial fluid) | % inhibition vs. controls (NH3 induced cough; 50 mg/kg p.o.) | % inhibition vs. controls ([2]; 50 mg/kg p.o.) | other results |
| --- | --- | --- | --- | --- | --- | --- | --- | --- | --- | --- | --- | --- | --- | --- | --- | --- | --- | --- | --- |
| Nc1c(Br)cc(Br)cc1CNC1CCC(O)CC1 (stereo not shown) [Ambroxol, 2-Amino-3,5-dibromo-N-(4-hydroxycyclohexyl)benzylamine, reference compound] | 7.40 ± 1.32 cough strokes | 19.57% | 6.20 ± 0.61 cough strokes | 35.42% | 4.80 ± 1.02 cough strokes | 46.07% | 57.2 mg/kg | poorly effective, lacking any statistical significance | substantially no effectiveness | 23.07% | 0.32 ± 0.03 | 26.92% | 0.33 ± 0.02 | 42.30% | 0.37 ± 0.03 | 95.2 mg/kg |  |  | % inhibition vs. controls (NH3 induced cough; 100 mg/kg p.o.): 34.2%; % inhibition vs. controls ([2]; 100 mg/kg p.o.): 13.5%; last time at which it can be dosed in plasma ([3]; in vivo): 12 h; time of plasmatic concentration peak ([3]; in vivo): second |
| COc1ccc2c3c1O[C@H]1[C@@H](O)C=C[C@H]4[C@@H](C2)N(C)CC[C@@]341 [Codeina fosfato] |  |  |  |  |  |  |  |  |  |  |  |  |  |  |  |  |  |  | % inhibition vs. controls (NH3 induced cough; 5 mg/kg p.o.): 56.1%; % inhibition vs. controls ([2]; 5 mg/kg p.o.): 63.1% |
| CN(CC(=O)N1CCOCC1)Cc1c(Cl)cccc1NC(=O)c1ccccc1 [Fominoben] |  |  |  |  |  |  |  |  |  |  |  |  |  |  |  |  | 63.4% | 59.0% |  |
| O=C(Nc1c(Br)cc(Br)cc1CNC1CCC(O)CC1)c1ccccc1 (stereo not shown) [YS 912, 2-benzoylamino-3,5-dibromo-N-(4-hydroxycyclohexyl)benzylamine] | 2.90 ± 0.60 cough strokes | 62.34% | 2.30 ± 0.54 cough strokes | 75.00% | 2.00 ± 0.47 cough strokes | 78.95% | 4.81 mg/kg | high activity | comparable to that of the two control compounds | 19.23% | 0.31 ± 0.03 | 30.76% | 0.34 ± 0.04 | 46.15% | 0.38 ± 0.04 | 60 mg/kg | 61.0% | 54.0% | antitussive activity in words ([1]; 12.5, 25, 50 mg/kg ip., compared with Ambroxol): remarkable antitussive activity; also recorded: higher than that of Ambroxol; potency by ED50 relative to Ambroxol ([1]; ratio to Ambroxol): 14 times; bronchosecretolytic effectiveness in words (bronchial fluid; p.o.): more favourable; Tmax ([3]; plasma, single administration, read-out: time of plasmatic concentration peak (converted)): 30 min; adsorption (absorption) ([3]; single administration): fast and high; main metabolite ([3]; single administration): the main metabolite being Ambroxol; AUC compared with Ambroxol [3, 5]: higher value being evidenced also in the case of the AUC; plasmatic half-life, increase over that of Ambroxol [3, 5]: 30%; metabolism: kinetic ([3]; single administration, after the 6th hour): slower kinetic; plasmatic concentrations in human clinic, extrapolated, two daily YS 912 vs three daily Ambroxol administrations [4]: two daily administrations of YS 912 allow to achieve plasmatic concentrations (and therefore therapeutical effectiveness) which can be compared with those obtained after three daily administrations of Ambroxol |
